Reference: patent US10953027B2, “Active agents and methods of their use for the treatment of metabolic disorders and nonalcoholic fatty liver disease” (Flagship Pioneering Innovations V, Inc., priority 2018, dated 2021)

Legend:
[1] = test system: Primary human subcutaneous adipocytes; test: Glucose uptake in human subcutaneous adipocytes, insulin sensitive model; assay type: cell-based
Procedure: Primary human subcutaneous adipocytes (Zen Bio, Research Triangle Park, N.C.) were differentiated for two weeks prior to treatment. Cells were treated with indicated compounds diluted in (dimethyl-sulfoxide) DMSO in serum free medium for 24 hours in triplicate. After 24 hours, media was exchanged for assay buffer and the compounds were added again but in the presence of approximately 1 nM insulin. Glucose uptake was initiated with the addition of a cocktail containing 2-deoxyglucose and ^3H-2-deoxyglucose and allowed to incubate for 2 hours. Cells were washed, lysed and glucose uptake was measured as counts per well. As an assay control, 100 nM of insulin was used during the 2 hours of glucose uptake. […] Statistical changes in glucose uptake were determined by way ANOVA and compared to DMSO.

[2] = test system: Primary human subcutaneous adipocytes; test: Glucose uptake in human subcutaneous adipocytes, insulin resistant model; assay type: cell-based
Procedure: As described above, primary human subcutaneous adipocytes were differentiated for two weeks prior to treatment. To induce an insulin resistant state, cells were treated in serum free Dulbecco's Modified Eagle Medium (high glucose) and […] for 24 hours. Cells were simultaneously treated with compounds diluted in DMSO for 24 hours. As described above, after 24 hours, media was exchanged for assay buffer and the compounds were added again but in the presence of approximately 1 nM insulin. Cells were washed and lysed after 2 hours and glucose uptake was measured. […] Statistical changes in glucose uptake were determined by way ANOVA and compared to DMSO.

[3] = test system: AhR; test: AhR activation in Caco-2 cells through CYP1A1 mRNA expression
Procedure: Caco-2 cells from American Type Culture Collection (ATCC) were plated in a sterile tissue culture treated 96-well plate (ThermoFisher) at […] per well, and grown overnight at 37° C., 5% CO2 in DMEM complete (Gibco) in order to achieve confluence. After the incubation medium was aspirated from the Caco-2 monolayers, tissues were then washed with 200 μL of warmed PBS solution, and subsequently 190 μL of pre-warmed growth medium was added to each well. Compounds of interest were diluted at a 20× concentration in growth medium containing 2% DMSO, and 10 μL of compound solutions were added to respective wells in triplicate. Compounds where incubated overnight at 37° C., 5% CO2. 2-(1′H-indole-3′-carbonyl)-thiazole-4-carboxylic acid methyl ester (ITE) was used as the positive control for AhR activation at 1 and 100 μM concentrations. At the end of the incubation, medium was aspirated off of the Caco-2 cells, and washed with 100 μL of cold PBS solution. RNA was extracted via the TaqMan™ Gene Expression Cells-to-CT™ Kit (ThermoFisher) according to the manufacturers protocol. The QuantStudio 6 Flex (Applied Biosciences) was used to analyze mRNA levels of CYP1A1 using GAPDH as the endogenous control. TaqMan™ probe sets for both genes were acquired from ThermoFisher. Samples were run in triplicate and data was analyzed using the QuantStudio software and reported as linear (Table 1) and log 2(ΔΔCT) values. Statistical analysis was performed using a two-tailed t-test comparing CYP1A1 levels in the presence of each individual compound to the vehicle negative control.

[4] = test system: Caco-2 colonocytes; test: Human Caco-2 barrier integrity assay (TEER); assay type: cell-based; conditions: 48 hours
Procedure: Caco-2 colonocytes were maintained at 37° C. and 5% CO2 in Dulbecco's Modified Eagle Medium (DMEM) and supplemented with 10% FBS, 1% NEAA, 1% penicillin-streptomycin. At 70-80% confluency, cells were trypsinized and seeded in 0.4 cm^2 transwell collagen I coated membranes with supplemented DMEM in both apical and basolateral compartments. Cells were seeded at a density of 200,000 cells per well and maintained for 10 days to form a polarized barrier with a TransEpithelial Electrial Resistance (TEER) reading above 1000Ω. On the first day of the assay, initial TEER readings were taken and cytokines were added to the basolateral media (50 ng/mL TNFα, 25 ng/mL IFNγ and 10 ng/mL IL-1β) to reduce barrier integrity while compounds diluted in (dimethylsulfoxide) DMSO were added to the apical media in triplicate. After 48 hours, TEER readings were taken again and viability was measured by CellTiter 96® AQueous One Solution Cell Proliferation Assay (Promega). The percent change in TEER over the 48 hours was determined and normalized to the 0.1% DMSO control (Table 6).

[5] = test system: Mouse 3T3-L1 cells; test: Mouse adipocyte lipolysis assay; assay type: cell-based; conditions: 24 hours
Procedure: Once the cells became confluent, they were seeded into a tissue culture treated 96 well plate. […] After 14 days of differentiation, cells were treated with compounds of interest. After 24 hours post-treatment, the cell viability was assessed using CellTiter-Glo Luminescent Cell Viability Assay from Promega, and lipolysis was determined using Lipolysis Assay Kit from ZenBio.

[6] = test system: Mouse myocyte; test: Mouse myocyte lipolysis assay; assay type: cell-based
[7] = test system: naïve CD4+ T cells; test: Human regulatory T cell differentiation assay; assay type: cell-based; conditions: 6 days
Outline: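 Naïve CD4+ T cells from healthy-donor PBMCs cultured 6 days in OpTmizer medium with 5 ng/ml TGF-β, 100 U/ml IL-2 and CD3/CD28/CD2 activator, with or without compound. Tregs (live CD4+CD3+CD25+FOXP3+, lineage-negative) measured by flow cytometry and expressed as % of total CD4+ T cells.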

[8] = test system: DIO-NASH mice; test: DIO animal model of NAFLD/NASH (Example 15); assay type: in vivo; conditions: 0.03% in AMLN diet, vs DIO-NASH vehicle
Procedure: The effect of 8 weeks of treatment for the indicated compounds on metabolic liver disease in pre-biopsied, 43-week old male DIO-NASH mice was evaluated (12 animals per group). Male C57BL/6JRj mice were fed 40% fat (18% trans-fat), 40% carbohydrate (20% fructose), and 2% Cholesterol (AMLN) diet for 38 weeks. All mice entering the experiment were pre-biopsied stratified based on liver biopsy (only animals with fibrosis stage ≥1 and steatosis score ≥2 were included). Animals were randomized into groups based on Col1a1 immunostaining. Mice were treated for a total of 8 weeks of dosing (drugs in diet, ad lib). […] Elafibranor was supplied by the vendor. Body weight was measured daily for the entire study period. Food intake was monitored daily for first 14 days and then twice a week until study end. Day 28 collection of tail vein blood/serum and feces. Terminal plasma was collected for biomarker determination of liver transaminases (ALT, AST), triglyceride and cholesterol. Terminal liver was removed, weighed, and sampled for 1) FFPE (histology), 2) frozen (biochemistry and nucleic acid). Liver biopsy histology: pre- and post-treatment NAFLD Activity Score (HE) including Fibrosis Stage (PSR), 2) post-treatment steatosis (HE), 3) post-treatment lipid-droplet #+size (HE), 4) post-treatment Galectin-3 (IHC), 5) pre- and post-treatment Collagen 1a1 (IHC), 6) post-treatment α-SMA (IHC). […]

SMILES | Insulin Sensitive % DMSO (glucose uptake) ([1]; 100 nM) | Insulin Sensitive % DMSO (glucose uptake) ([1]; 10 μM) | Insulin Resistant % DMSO (glucose uptake) ([2]; 100 nM) | Insulin Resistant % DMSO (glucose uptake) ([2]; 10 μM) | Average CYP1A1 mRNA levels ([3]; Conc. 0.1 μM) | Average CYP1A1 mRNA levels ([3]; Conc. 1.0 μM) | % Change in TEER from DMSO ([4]; 100 nM + cytokines) | % Change in TEER from DMSO ([4]; 1 μM + cytokines) | Lipolysis Free Fatty Acids % DMSO ([5]; 100 nM) | Lipolysis Glycerol % change ([5]; 100 nM) | Lipolysis Free Fatty Acids % DMSO ([5]; 1 μM) | Lipolysis Glycerol % change ([5]; 1 μM) | Free glycerol % DMSO ([6]; 100 nM) | Free glycerol % DMSO ([6]; 1 μM) | Cell viability % DMSO ([7]; 100 nM) | Treg induction % DMSO ([7]; 100 nM) | Cell viability % DMSO ([7]; 1 uM) | Treg induction % DMSO ([7]; 1 uM) | liver fibrosis, Picro Sirius red (FIG. 49B) [8] | liver morphology: lipid vacuole size (FIG. 48B) [8]
O=C(O[C@@H]1Cc2c(O)cc(O)cc2O[C@@H]1c1cc(O)c(O)c(O)c1)c1cc(O)c(O)c(O)c1 [EGCG, epigallocatechin gallate] | = (50%> ≤110%: =) | = (50%> ≤110%: =) | + (110%> ≤140%: +) | = (50%> ≤110%: =) | − (− = +2-fold Vehicle) | − (− = +2-fold Vehicle) | − (≤125%: −) | − (≤125%: −) | ++ (50> ≤70%: ++) | + (70%> ≤90%: +) | ++ (50> ≤70%: ++) | + (70%> ≤90%: +) | + (70%> <90%: +) | + (70%> <90%: +) | = (90%≥ ≤110%: =) | = (90%≥ ≤110%: =) | = (90%≥ ≤110%: =) | = (90%≥ ≤110%: =) |  | 
CSc1ccc(C(=O)/C=C/c2cc(C)c(OC(C)(C)C(=O)O)c(C)c2)cc1 [Elafibranor] |  |  |  |  |  |  |  |  |  |  |  |  |  |  |  |  |  |  | the fibrosis is finer | the vacuoles are smaller
